The test system of the data set is CCRIS mutagenicity, Ames/micronucleus/aberration tests. Description: CCRIS mutagenicity studies.
Setting [1] is: Test System: AMES SALMONELLA TYPHIMURIUM, Strain/Indicator: TA98, Metabolic Activation: NONE, Method: PREINCUBATION
Setting [2] is: Test System: AMES SALMONELLA TYPHIMURIUM, Strain/Indicator: TA100, Metabolic Activation: NONE, Method: PREINCUBATION

Molecules are shown by their SMILES. The source made the active and inactive calls. How the calls were made is not given here.

With `O=[N+]([O-])c1cccc2c1oc1ccccc12`, the mutagenic call was “active; positive” (Test System: AMES SALMONELLA TYPHIMURIUM, Strain/Indicator: TA98(1,8-DNP6), Metabolic Activation: NONE, Method: PREINCUBATION); “active; positive” (Test System: AMES SALMONELLA TYPHIMURIUM, Strain/Indicator: TA98(1,8-DNP6), Metabolic Activation: NONE, Method: SUSPENSION); “active; positive” (Test System: AMES SALMONELLA TYPHIMURIUM, Strain/Indicator: TA98(1,8-DNP6), Metabolic Activation: RAT, LIVER, S-9, PCB (5%), Method: PREINCUBATION); “active; positive” (Test System: AMES SALMONELLA TYPHIMURIUM, Strain/Indicator: TA98(NR), Metabolic Activation: NONE, Method: PREINCUBATION); “active; positive” (Test System: AMES SALMONELLA TYPHIMURIUM, Strain/Indicator: TA98(NR), Metabolic Activation: NONE, Method: SUSPENSION); “active; positive” (Test System: AMES SALMONELLA TYPHIMURIUM, Strain/Indicator: TA98(NR), Metabolic Activation: RAT, LIVER, S-9 (10%), Method: PREINCUBATION). In addition, the mutagenic call was “active; positive” (Test System: AMES SALMONELLA TYPHIMURIUM, Strain/Indicator: TA98(NR), Metabolic Activation: RAT, LIVER, S-9, 3-METHYLCHOLANTHRENE (10%), Method: PREINCUBATION); “active; positive” (Test System: AMES SALMONELLA TYPHIMURIUM, Strain/Indicator: TA98(NR), Metabolic Activation: RAT, LIVER, S-9, BETA-NAPHTHOFLAVONE (10%), Method: PREINCUBATION); “active; positive” (Test System: AMES SALMONELLA TYPHIMURIUM, Strain/Indicator: TA98(NR), Metabolic Activation: RAT, LIVER, S-9, PCB (5%), Method: PREINCUBATION); “active; positive” (Test System: AMES SALMONELLA TYPHIMURIUM, Strain/Indicator: TA98(NR), Metabolic Activation: RAT, LIVER, S-9, PCB (10%), Method: PREINCUBATION); “active; positive” (Test System: AMES SALMONELLA TYPHIMURIUM, Strain/Indicator: TA98(NR), Metabolic Activation: RAT, LIVER, S-9, PHENOBARBITAL (10%), Method: PREINCUBATION); “active; positive” under setting [1]. Besides, the mutagenic call by setting is: (Test System: AMES SALMONELLA TYPHIMURIUM, Strain/Indicator: TA98, Metabolic Activation: NONE, Method: SUSPENSION) “active; positive”; (Test System: AMES SALMONELLA TYPHIMURIUM, Strain/Indicator: TA98, Metabolic Activation: RAT, LIVER, S-9, PCB (5%), Method: PREINCUBATION) “active; positive”; (Test System: AMES SALMONELLA TYPHIMURIUM, Strain/Indicator: TA98, Metabolic Activation: RAT, LIVER, S-9, PCB, Method: SUSPENSION) “active; positive”; under setting [2], “inactive; negative”; (Test System: AMES SALMONELLA TYPHIMURIUM, Strain/Indicator: TA100, Metabolic Activation: NONE, Method: SUSPENSION) “active; positive”; (Test System: AMES SALMONELLA TYPHIMURIUM, Strain/Indicator: TA100, Metabolic Activation: RAT, LIVER, S-9, PCB (5%), Method: PREINCUBATION) “active; positive”. Also, the mutagenic call (Test System: AMES SALMONELLA TYPHIMURIUM, Strain/Indicator: TA100, Metabolic Activation: RAT, LIVER, S-9, PCB, Method: SUSPENSION) is “active; positive”.

Turning to `Nc1c(Br)cc([N+](=O)[O-])cc1[N+](=O)[O-]`, the mutagenic call (Test System: AMES SALMONELLA TYPHIMURIUM, Strain/Indicator: TA98, Metabolic Activation: HAMSTER, LIVER, S-9, AROCLOR 1254 (10%), Method: PREINCUBATION) was “active; positive”; the mutagenic call (Test System: AMES SALMONELLA TYPHIMURIUM, Strain/Indicator: TA98, Metabolic Activation: HAMSTER, LIVER, S-9, AROCLOR 1254, Method: STANDARD PLATE) was “active; positive”; the mutagenic call under setting [1] was “active; positive”; the mutagenic call (Test System: AMES SALMONELLA TYPHIMURIUM, Strain/Indicator: TA98, Metabolic Activation: NONE, Method: STANDARD PLATE) is “active; positive”; the mutagenic call (Test System: AMES SALMONELLA TYPHIMURIUM, Strain/Indicator: TA98, Metabolic Activation: RAT, LIVER, S-9, AROCLOR 1254 (10%), Method: PREINCUBATION) was “active; positive”; the mutagenic call (Test System: AMES SALMONELLA TYPHIMURIUM, Strain/Indicator: TA98, Metabolic Activation: RAT, LIVER, S-9, AROCLOR 1254, Method: STANDARD PLATE) is “active; positive”. The mutagenic call runs as follows: (Test System: AMES SALMONELLA TYPHIMURIUM, Strain/Indicator: TA98, Metabolic Activation: RAT, LIVER, S-9, KANECHLOR 500, Method: PREINCUBATION) “active; positive”; (Test System: AMES SALMONELLA TYPHIMURIUM, Strain/Indicator: TA100, Metabolic Activation: HAMSTER, LIVER, S-9, AROCLOR 1254 (10%), Method: PREINCUBATION) “active; positive”; (Test System: AMES SALMONELLA TYPHIMURIUM, Strain/Indicator: TA100, Metabolic Activation: HAMSTER, LIVER, S-9, AROCLOR 1254, Method: STANDARD PLATE) “active; positive”; under setting [2], “active; positive”; (Test System: AMES SALMONELLA TYPHIMURIUM, Strain/Indicator: TA100, Metabolic Activation: NONE, Method: STANDARD PLATE) “active; positive”; (Test System: AMES SALMONELLA TYPHIMURIUM, Strain/Indicator: TA100, Metabolic Activation: RAT, LIVER, S-9, AROCLOR 1254 (10%), Method: PREINCUBATION) “active; positive”. Further, the mutagenic call is “active; positive” (Test System: AMES SALMONELLA TYPHIMURIUM, Strain/Indicator: TA100, Metabolic Activation: RAT, LIVER, S-9, AROCLOR 1254, Method: STANDARD PLATE); “active; positive” (Test System: AMES SALMONELLA TYPHIMURIUM, Strain/Indicator: TA100, Metabolic Activation: RAT, LIVER, S-9, KANECHLOR 500, Method: PREINCUBATION); “inactive; negative” (Test System: AMES SALMONELLA TYPHIMURIUM, Strain/Indicator: TA1535, Metabolic Activation: HAMSTER, LIVER, S-9, AROCLOR 1254 (10%), Method: PREINCUBATION); “inactive; negative” (Test System: AMES SALMONELLA TYPHIMURIUM, Strain/Indicator: TA1535, Metabolic Activation: NONE, Method: PREINCUBATION); “inactive; negative” (Test System: AMES SALMONELLA TYPHIMURIUM, Strain/Indicator: TA1535, Metabolic Activation: RAT, LIVER, S-9, AROCLOR 1254 (10%), Method: PREINCUBATION); “active; positive” (Test System: AMES SALMONELLA TYPHIMURIUM, Strain/Indicator: TA1537, Metabolic Activation: HAMSTER, LIVER, S-9, AROCLOR 1254 (10%), Method: PREINCUBATION). Moreover, the mutagenic call was “active; positive” (Test System: AMES SALMONELLA TYPHIMURIUM, Strain/Indicator: TA1537, Metabolic Activation: HAMSTER, LIVER, S-9, AROCLOR 1254, Method: STANDARD PLATE); “active; positive” (Test System: AMES SALMONELLA TYPHIMURIUM, Strain/Indicator: TA1537, Metabolic Activation: NONE, Method: PREINCUBATION); “active; positive” (Test System: AMES SALMONELLA TYPHIMURIUM, Strain/Indicator: TA1537, Metabolic Activation: NONE, Method: STANDARD PLATE); “active; positive” (Test System: AMES SALMONELLA TYPHIMURIUM, Strain/Indicator: TA1537, Metabolic Activation: RAT, LIVER, S-9, AROCLOR 1254 (10%), Method: PREINCUBATION); “active; positive” (Test System: AMES SALMONELLA TYPHIMURIUM, Strain/Indicator: TA1537, Metabolic Activation: RAT, LIVER, S-9, AROCLOR 1254, Method: STANDARD PLATE); “active; positive” (Test System: AMES SALMONELLA TYPHIMURIUM, Strain/Indicator: TA1538, Metabolic Activation: HAMSTER, LIVER, S-9, AROCLOR 1254, Method: STANDARD PLATE). In addition, the mutagenic call by setting is: (Test System: AMES SALMONELLA TYPHIMURIUM, Strain/Indicator: TA1538, Metabolic Activation: NONE, Method: STANDARD PLATE) “active; positive”; (Test System: AMES SALMONELLA TYPHIMURIUM, Strain/Indicator: TA1538, Metabolic Activation: RAT, LIVER, S-9, AROCLOR 1254, Method: STANDARD PLATE) “active; positive”; (Test System: MOUSE LYMPHOMA, Strain/Indicator: L5178Y (TK+/TK-), Metabolic Activation: NONE, Method: SUSPENSION/PLATE) “active; positive. reevaluation of results: positive”; (Test System: MOUSE LYMPHOMA, Strain/Indicator: L5178Y (TK+/TK-), Metabolic Activation: RAT, LIVER, S-9, AROCLOR 1254, Method: SUSPENSION/PLATE) “active; positive. reevaluation of results: positive”.

Values taken from PubChem BioAssay AID1259407 (Chemical Carcinogenesis Research Information System (CCRIS), 2018).
